Reference: publication PMC10066365, “Nemacol is a small molecule inhibitor of C. elegans vesicular acetylcholine transporter with anthelmintic potential” (Nature Communications, 2023)
Where “and” joins values, the source holds several entries; their conditions need not be identical. Equal values may be shown once.

What was measured:
[1] = test system: C. elegans emb-8(hc69); emb-8(RNAi); test: Motor phenotype time course on 60 μM Nemacol-1, EMB-8 disruption vs wild type; format: in vivo, Caenorhabditis elegans; conditions: for adult worms C1 (loose coil) / adult worms C2 (tight coil) / adult worms NP (no phene) / adult worms J (jerky-unc): count per bio rep
[2] = as above; format: in vivo, Caenorhabditis elegans; conditions: N2, 60µM, count per bio rep
[3] = N2, 60µM, 1h, average of 3 biological repeats
[4] = N2, 60µM, 4h, average of 3 biological repeats
[5] = N2, 60µM, 6h, average of 3 biological repeats
[6] = N2, 60µM, 24h, average of 3 biological repeats
[7] = emb-8, 60µM, 1h, average of 3 biological repeats
[8] = emb-8, 60µM, 4h, average of 3 biological repeats
[9] = emb-8, 60µM, 6h, average of 3 biological repeats
[10] = emb-8, 60µM, 24h, average of 3 biological repeats

SMILES: O=[N+]([O-])c1ccc(N2CCN(CC3CCCCC3)CC2)cc1 [Nemacol-1]
- Fraction Coiled [1, 3]: 0.5185
- Fraction Jerky-Unc [1, 3]: 0.2778
- Fraction Parayzed [1, 3]: 0.2037
- adult worms C1 (loose coil) ([1]; N2, 60µM, 1h): 4 and 3 and 5
- adult worms C2 (tight coil) ([1]; N2, 60µM, 1h): 6 and 4
- adult worms NP (no phene) ([1]; N2, 60µM, 1h): 0
- Fraction Coiled ([1]; N2, 60µM, 1h, per bio rep): 0.5000 and 0.5556
- Fraction Coiled [1, 4]: 0.1111
- Fraction Jerky-Unc [1, 4]: 0.2963
- Fraction Parayzed [1, 4]: 0.0185
- adult worms J (jerky-unc) ([1]; N2, 60µM, 4h): 7 and 5 and 4
- adult worms NP (no phene) ([1]; N2, 60µM, 4h): 7 and 14 and 10
- Fraction Jerky-Unc ([1]; N2, 60µM, 4h, per bio rep): 0.2222 and 0.3889 and 0.2778
- Fraction Coiled [1, 5]: 0.0556
- Fraction Jerky-Unc [1, 5]: 0.2037
- Fraction Parayzed [1, 5]: 0.0000
- adult worms J (jerky-unc) ([1]; N2, 60µM, 6h): 3 and 5
- adult worms NP (no phene) ([1]; N2, 60µM, 6h): 15 and 10
- Fraction Jerky-Unc ([1]; N2, 60µM, 6h, per bio rep): 0.1667 and 0.2778
- Fraction Parayzed ([1]; N2, 60µM, 6h, per bio rep): 0.0000
- Fraction Coiled [1, 6]: 0.0000
- Fraction Jerky-Unc [1, 6]: 0.0000
- Fraction Parayzed [1, 6]: 0.0000
- adult worms C1 (loose coil) ([1]; N2, 60µM, 24h): 0
- adult worms C2 (tight coil) ([1]; N2, 60µM, 24h): 0
- adult worms J (jerky-unc) ([1]; N2, 60µM, 24h): 0
- adult worms NP (no phene) ([1]; N2, 60µM, 24h): 18
- Fraction Coiled ([1]; N2, 60µM, 24h, per bio rep): 0.0000
- Fraction Jerky-Unc ([1]; N2, 60µM, 24h, per bio rep): 0.0000
- Fraction Parayzed ([1]; N2, 60µM, 24h, per bio rep): 0.0000
- Fraction Coiled [1, 7]: 0.5000
- Fraction Jerky-Unc [1, 7]: 0.2778
- Fraction Parayzed [1, 7]: 0.2222
- adult worms C1 (loose coil) ([1]; emb-8, 60µM, 1h): 3 and 4
- adult worms C2 (tight coil) ([1]; emb-8, 60µM, 1h): 6 and 4
- adult worms J (jerky-unc) ([1]; emb-8, 60µM, 1h): 5 and 4 and 6
- adult worms NP (no phene) ([1]; emb-8, 60µM, 1h): 0
- Fraction Coiled ([1]; emb-8, 60µM, 1h, per bio rep): 0.5556 and 0.5000 and 0.4444
- Fraction Jerky-Unc ([1]; emb-8, 60µM, 1h, per bio rep): 0.3333 and 0.2778 and 0.2222
- Fraction Coiled [1, 8]: 0.1481
- Fraction Jerky-Unc [1, 8]: 0.3889
- Fraction Parayzed [1, 8]: 0.4630
- adult worms NP (no phene) ([1]; emb-8, 60µM, 4h): 0
- Fraction Coiled [1, 9]: 0.3704
- Fraction Jerky-Unc [1, 9]: 0.2778
- Fraction Parayzed [1, 9]: 0.3519
- adult worms C2 (tight coil) ([1]; emb-8, 60µM, 6h): 4 and 3
- adult worms NP (no phene) ([1]; emb-8, 60µM, 6h): 0
- Fraction Coiled [1, 10]: 0.2963
- Fraction Jerky-Unc [1, 10]: 0.2222
- Fraction Parayzed [1, 10]: 0.4815
- adult worms NP (no phene) ([1]; emb-8, 60µM, 24h): 0
- Fraction Coiled ([1]; emb-8, 60µM, 24h, per bio rep): 0.3333 and 0.2222
- adult worms P (paralyzed) ([2]; 6h): 0
- adult worms P (paralyzed) ([2]; 24h): 0
